In US9656984B2, “PI3K/AKT/mTOR inhibitors and pharmaceutical uses thereof” (UNIVERSITE DE RENNES 1, priority 2013, dated 2017):

tested on: AKT phosphorylation; experiment: In cellulo IC50 of AKT phosphorylation in CEM cells (Western blot densitometry); assay type: cell-based; conditions: Homo sapiens, CCRF-CEM, 2 hours incubation, AKT phosphorylation vs whole AKT, read-out: In vivo IC50
Procedure: CEM cells were incubated for 2 hours with the indicated concentrations of each mentioned compound of formula (I). Cells were then lysed and 100 μg of protein was loaded per line in an SDS-PAGE. Bands from AKT phosphorylation and whole AKT observed by Western blot were scanned and quantified by densitometric analysis. Based on these values, an in cellulo IC50 (half maximal inhibitory concentration) was measured for each compound of formula (I).
(§1) Immunoblots Excepted for immunoprecipitation experiments in which cells were lyzed with RIPA buffer, cells were lyzed for 30 min at 4° C. in Lysis buffer (25 mM HEPES pH 7.4, 1% v/v Triton X-100, 150 mM NaCl, 2 mM EGTA supplemented with a mix of protease inhibitors). Protein concentration was determined by the bicinchoninic acid method (Pierce, Rockford, Ill., USA) according to the manufacturer's protocol. Proteins were resolved by 8, 10 or 12% SDS-PAGE and transferred to a nitrocellulose membrane (GE Healthcare, Buckinghamshire, UK). The membrane was blocked 15 min with TBST (50 mM Tris, 160 mM NaCl, 0.05% v/v Tween 20, pH 7.4) containing 5% w/v dried skimmed milk (TBS™). Primary antibody was incubated overnight at 4° C. in TBS™. The membrane was intensively washed (TBST) and then the peroxydase-labeled anti-mouse IgG1 or IgG2a (CliniSciences, Nanterre, France) was added for 45 min. Proteins were visualized with the enhanced chemiluminescence substrate kit (ECL RevelBIOt®, Ozyme, Saint Quentin en Yvelines, France).

SMILES | IC50
O=c1cc(N2CCOCC2)oc2c(-c3ccccc3)cccc12 [LY294002, reference compound] | > 10 µM

tested on: MCF-7 (ER-positive) breast tumor cell line; experiment: Cell death by MTT assay, MCF-7; assay type: cell-based, human; conditions: MCF-7, 6.25 μM, 24 hours, mean of four experiments
Procedure: (§2) The ER-positive breast tumor cell lines MCF-7 and T47-D and the HER2 positive breast tumor cell lines MDA-MB-453 and BT474 (also ER-positive) were incubated with the indicated concentration of each mentioned compound of formula (I) for 24 hours and then cell death was assessed using MTT assay.
(§3) For each cell line, the percentage of cell death (mean of four experiments for cell lines MCF-7 and T47-D, and two experiments for cell lines MDA-MB-453 and BT474) is given in view of the increasing concentration of each tested compound of the invention.
(§4) Cell viability was assessed using the 3-[4,5-dimethylthiazol-2-yl]-2,5-diphenyltetrazolium bromide (MTT) viability assay (1). In brief, cells (4×10^4 per well) were cultured for 20 h in flat-bottomed 96 well plates with various concentrations of the apoptosis inducer. Then 0.015 ml of MTT (5 mg/ml in PBS) was added to each well and incubated for 4 h at 37° C. Formazan salt precipitats were dissolved by adding 0.115 ml of isopropyl alcohol containing 1% formic acid (v/v), and the absorbance was measured at 570 nm.

SMILES | percentage of cell death
O=c1cc(N2CCOCC2)oc2c(-c3ccccc3)cccc12 [LY294002, reference compound] | 11.53%

same assay, conditions: MCF-7, 12.5 μM, 24 hours, mean of four experiments

SMILES | percentage of cell death
O=c1cc(N2CCOCC2)oc2c(-c3ccccc3)cccc12 [LY294002, reference compound] | 11.067%

same assay, conditions: MCF-7, 25 μM, 24 hours, mean of four experiments

SMILES | percentage of cell death
O=c1cc(N2CCOCC2)oc2c(-c3ccccc3)cccc12 [LY294002, reference compound] | 13.51%

same assay, conditions: MCF-7, 50 μM, 24 hours, mean of four experiments

SMILES | percentage of cell death
O=c1cc(N2CCOCC2)oc2c(-c3ccccc3)cccc12 [LY294002, reference compound] | 18.89%

tested on: T47-D (ER-positive) breast tumor cell line; experiment: Cell death by MTT assay, T47-D; assay type: cell-based, human; conditions: 6.25 μM, 24 hours, mean of four experiments
Procedure: as §2, §3, §4

SMILES | percentage of cell death
O=c1cc(N2CCOCC2)oc2c(-c3ccccc3)cccc12 [LY294002, reference compound] | 32.33%

same assay, conditions: 12.5 μM, 24 hours, mean of four experiments

SMILES | percentage of cell death
O=c1cc(N2CCOCC2)oc2c(-c3ccccc3)cccc12 [LY294002, reference compound] | 40.42%

same assay, conditions: 25 μM, 24 hours, mean of four experiments

SMILES | percentage of cell death
O=c1cc(N2CCOCC2)oc2c(-c3ccccc3)cccc12 [LY294002, reference compound] | 50.01%

same assay, conditions: 50 μM, 24 hours, mean of four experiments

SMILES | percentage of cell death
O=c1cc(N2CCOCC2)oc2c(-c3ccccc3)cccc12 [LY294002, reference compound] | 55.69%

tested on: MDA-MB-453 (HER2 positive) breast tumor cell line; experiment: Cell death by MTT assay, MDA-MB-453; assay type: cell-based, human; conditions: MDA-MB-453, 0.390625 μM, 24 hours, mean of two experiments
Procedure: as §2, §3, §4

SMILES | percentage of cell death
O=c1cc(N2CCOCC2)oc2c(-c3ccccc3)cccc12 [LY294002, reference compound] | 0%

same assay, conditions: MDA-MB-453, 0.78125 μM, 24 hours, mean of two experiments

SMILES | percentage of cell death
O=c1cc(N2CCOCC2)oc2c(-c3ccccc3)cccc12 [LY294002, reference compound] | 0%

same assay, conditions: MDA-MB-453, 1.5625 μM, 24 hours, mean of two experiments

SMILES | percentage of cell death
O=c1cc(N2CCOCC2)oc2c(-c3ccccc3)cccc12 [LY294002, reference compound] | 0%

same assay, conditions: MDA-MB-453, 3.125 μM, 24 hours, mean of two experiments

SMILES | percentage of cell death
O=c1cc(N2CCOCC2)oc2c(-c3ccccc3)cccc12 [LY294002, reference compound] | 0%

same assay, conditions: MDA-MB-453, 6.25 μM, 24 hours, mean of two experiments

SMILES | percentage of cell death
O=c1cc(N2CCOCC2)oc2c(-c3ccccc3)cccc12 [LY294002, reference compound] | 17.45%

same assay, conditions: MDA-MB-453, 12.5 μM, 24 hours, mean of two experiments

SMILES | percentage of cell death
O=c1cc(N2CCOCC2)oc2c(-c3ccccc3)cccc12 [LY294002, reference compound] | 53.74%

same assay, conditions: MDA-MB-453, 25 μM, 24 hours, mean of two experiments

SMILES | percentage of cell death
O=c1cc(N2CCOCC2)oc2c(-c3ccccc3)cccc12 [LY294002, reference compound] | 76.61%

same assay, conditions: MDA-MB-453, 50 μM, 24 hours, mean of two experiments

SMILES | percentage of cell death
O=c1cc(N2CCOCC2)oc2c(-c3ccccc3)cccc12 [LY294002, reference compound] | 86.55%

tested on: BT474 (ER-positive/HER2-positive) breast tumor cell line; experiment: Cell death by MTT assay, BT474; assay type: cell-based, human; conditions: BT474, 6.25 μM, 24 hours, mean of two experiments
Procedure: as §2, §3, §4

SMILES | percentage of cell death
O=c1cc(N2CCOCC2)oc2c(-c3ccccc3)cccc12 [LY294002, reference compound] | 35.35%

same assay, conditions: BT474, 12.5 μM, 24 hours, mean of two experiments

SMILES | percentage of cell death
O=c1cc(N2CCOCC2)oc2c(-c3ccccc3)cccc12 [LY294002, reference compound] | 48.7%

same assay, conditions: BT474, 25 μM, 24 hours, mean of two experiments

SMILES | percentage of cell death
O=c1cc(N2CCOCC2)oc2c(-c3ccccc3)cccc12 [LY294002, reference compound] | 62.79%

same assay, conditions: BT474, 50 μM, 24 hours, mean of two experiments

SMILES | percentage of cell death
O=c1cc(N2CCOCC2)oc2c(-c3ccccc3)cccc12 [LY294002, reference compound] | 77.2%

tested on: PI3K/AKT activity (AKT phosphorylation); experiment: PI3K/AKT/mTOR pathway inhibitory activity: level of AKT phosphorylation in CEM cells over time; assay type: cell-based, human; conditions: 10 μM, FIGS. 7 and 8
Procedure: The CEM cell was incubated with 10 μM of each mentioned compound of formula (I) for the indicated times and then cells were lysed and 100 μg of protein was loaded per line and resolved by SDS-PAGE. The levels of AKT phosphorylation (hallmark of PI3K activation) and total AKT (loading control) were analyzed by Western blot and the amount of AKT phosphorylation relative to the total amount of protein AKT was quantified by densitometric analysis, the intensity of each band was scanned and the level of AKT phosphorylation was reported to the amount of whole AKT and the percentage of phosphorylated-AKT was depicted.
as §1

SMILES | inhibitory activity on PI3K/AKT (level of AKT phosphorylation)
CCOc1cccc2c1OC(c1ccc(F)cc1)C([N+](=O)[O-])=C2 (centres unmarked) [A] | very weak inhibitory activity

tested on: Leukemic T-cell line Jurkat; experiment: Cytotoxic effect by MTT assay, Jurkat; assay type: cell-based; conditions: 24 hours (FIG. 1) or 20 hours (FIG. 6)
Procedure: (§5) Leukemic T-cell lines Jurkat and CEM were incubated for 24 hours (see FIGS. 1, 2, 3, 4 and 5) or for 20 hours (see FIG. 6) with compounds of formula (I) and with compound A, at the indicated concentrations and cell death was assessed using the viability assay MTT, which estimates the metabolic state of the cell.
as §4

SMILES | percentage of cell death (cytotoxic effect)
CCOc1cccc2c1OC(c1ccc(F)cc1)C([N+](=O)[O-])=C2 (centres unmarked) [A] | lower percentage of cell death

tested on: Leukemic T-cell line CEM; experiment: Cytotoxic effect by MTT assay, CEM; assay type: cell-based; conditions: 24 hours, FIGS. 2 to 5
Procedure: as §5, §4

SMILES | percentage of cell death (cytotoxic effect)
O=c1cc(N2CCOCC2)oc2c(-c3ccccc3)cccc12 [LY294002, reference compound] | much lower cell death percentage
CCOc1cccc2c1OC(c1ccc(F)cc1)C([N+](=O)[O-])=C2 (centres unmarked) [A] | lower percentage of cell death

tested on: not given; experiment: not given; conditions: not given

SMILES | melting point
N#CC1=Cc2cc(Br)ccc2OC1c1ccc(Br)cc1 (centres unmarked) [Compound 61, 6-Bromo-2-(4-bromophenyl)-2H-chromene-3-carbonitrile] | 136 to 138 °C
